Results as given in patent US20030157026A1, “Photodynamic diagnosis and therapy for insulin-dependent diabetes mellitus” (priority 2001, published 2003).

Key:
Type in all cases: in vivo
[1] = system: macrophages having infiltrated the inflammatory sites of Langerhans islets; test: Uptake of conventional PDT photosensitizers into macrophages in the pancreas of a mammal with IDDM; conditions: no test described
[2] = system: BB rats with onset of IDDM; test: Test Example 3: photodynamic therapy of IDDM in BB rats (664-nm laser light), survival rate
Description: From 60 days after birth, BB rats (16 rats per group) were examined every day for the urine sugar level and blood sugar level, to confirm the time of the onset of IDDM. […] Photodynamic therapy of IDDM was thus conducted once, and thereafter, the survival rate (%) of the BB rats were evaluated during the breeding for subsequent […].
On the other hand, the survival rate (%) of the control group of rats (untreated) was about 65% on Day 6 after the start of the test, and all rats had died on Day 22 after the start of the test.
The survival rate (%) of rats under test was evaluated by the following equation: [formula]

[3] = system: macrophages having infiltrated the islets of Langerhans; test: Test Example 1: fluorescence localisation in frozen pancreatic sections after i.v. administration to BB rats with onset of IDDM; conditions: 5 mg/kg via tail vein, pancreas excised 1 hour after administration, 664 nm laser (same result with 405 nm UV / 672 nm fluorescence)
Text: From 60 days after birth, the BB rats were examined every day for the urine sugar level and blood sugar level by using GLUTEST SENSOR (Sanwa Kagaku Co., Ltd., Japan). […] The excised pancreases were frozen in dry ice/acetone, to prepare frozen pancreatic sections of 5 μm in thickness. The frozen pancreatic sections were irradiated with a semiconductor laser light of 664 nm (Matsushita Industrial Equipment Co., Ltd., Japan). An image of fluorescence as emitted by mono-L-aspartyl chlorin e6 in the frozen pancreatic section was observed under a fluorescence microscope equipped with a notched filter for cutting 664 nm wavelength (made by Carl Zeiss). […]
Further, the places of the pancreas section which indicated the previously observed fluorescence of mono-L-aspartyl chlorin e6 were confirmed to be consistent with the sites where the macrophages were present in the pancreas sections. […] When a method comprising irradiation of a UV ray of a wavelength of 405 nm and observing a fluorescence at 672 nm with a cut filter for cutting light rays of wavelengths of not more than 600 nm was used for the observation of the fluorescence of mono-L-aspartyl chlorin e6, there could again be obtained the same result as that obtained in the above-described method comprising irradiation of the 664-nm semiconductor laser.

[4] = BB rats treated by the photodynamic therapy

With `CCOC(=O)C1=Cc2c3nc(cc4nc(cc5[n-]c(cc6[n-]c2c(C)c6CC)c(C)c5CC)C(C)=C4CC)[C@@H](C)[C@]13CC.[Cl-].[Cl-].[Sn]` (racemic) [rostaporfin] the “uptake into macrophages when each singly administered” value (from here on “uptake into macrophages”) [1] was “selectively be uptaken by and into the macrophages”.
`C=CC1=C(C)C2=CC3=C(/C=C/NO)C(C)(O)C(=CC4=NC(=CC5=NC(=CC1=N2)C(C)=C5CCC(=O)N[C@@H](CC(=O)[O-])C(=O)[O-])C(CCC(=O)N[C@@H](CC(=O)[O-])C(=O)[O-])=C4C)N3.[Na+].[Na+].[Na+].[Na+]` (stereo partly drawn) [ATX-S10] was tested, and the “uptake into macrophages” value [1] was “selectively be uptaken by and into the macrophages”.
In the case of `C=Cc1c(C)c2cc3nc(c(CC(=O)O)c4[nH]c(cc5nc(cc1[nH]2)C(C)=C5CC)c(C)c4C(=O)O)[C@@H](CCC(=O)O)[C@@H]3C` [chlorin e6], the “uptake into macrophages” value [1] is reported as “selectively be uptaken by and into the macrophages”.
In the case of `C=Cc1c(C)c2cc3nc(c(CC(=O)N[C@@H](CC(=O)[O-])C(=O)[O-])c4[nH]c(cc5nc(cc1[nH]2)C(C)=C5CC)c(C)c4C(=O)[O-])[C@@H](CCC(=O)[O-])[C@@H]3C.[Na+].[Na+].[Na+].[Na+]` [mono-L-aspartyl chlorin e6], the “blood sugar level compared with control group” value [2, 4] is reported as “blood sugar level had changed at slightly lower stages”, the “progress of Langerhans islet inflammation (pancreatic insulitis)” value [2, 4] is reported as “pancreatic insulitis was suppressed by the PDT” and the insulin production ([2]; BB rats treated by the photodynamic therapy vs control) is reported as “tendency to delay the disappearance of insulin production”. For the same compound, the “uptake and accumulation of the administered photosensitizer (fluorescence image vs macrophage antibody staining)” value [3] was “uptaken into and accumulated specifically in the macrophages having infiltrated the islets of Langerhans”.
`CC(=O)[O-].CC(=O)[O-].CCc1c(CC)c2cc3nc(cnc4cc(OCCOCCOCCOC)c(OCCOCCOCCOC)cc4ncc4nc(cc1[n-]2)C(CCCO)=C4C)C(C)=C3CCCO.O.[Lu+3]` [motexafin lutetium] was tested, and the “uptake into macrophages” value [1] was “selectively be uptaken by and into the macrophages”.
For porfimer sodium, the “uptake into macrophages” value [1] was “selectively be uptaken by and into the macrophages”.
For “tetrasodium salt of mono-L-aspartyl chlorin e6”, the long-term survivors ([2]; BB rats, 5 mg/kg i.v. plus 664-nm laser, all control rats had died on Day 22) was “several rats surviving still after Day 35”, the “survival curve compared with untreated control group” value ([2]; BB rats, 5 mg/kg i.v., 24 h later 664-nm laser 50 J/cm^2, once) was “evident prolongation of their survival curve” and the “survival rate (%) on Day 6 after the start of the therapy” value ([2]; BB rats, 5 mg/kg i.v., 24 h later 664-nm laser 50 J/cm^2 transcutaneously, once, untreated control about 65%) was 100%.
